In patent publication US20110229580A1, “COMPOSITIONS AND METHODS FOR NANO-IN-MICRO PARTICLES” (Indian Institute of Technology Bombay, School of …, priority 2010, published 2011):

Assay: Confocal laser scanning microscopy of dye retention in CaCO3 nanoparticles
Assay type: physicochemical
Settings: CLSM
Text: Fluorescent images of FITC-dex (70 kDa) loaded CaCO3 nanoparticles were examined using confocal microscopy. Confocal micrographs of micro/nanoparticles were obtained with a flow view confocal laser scanning microscope (CLSM) equipped with a krypton-argon laser (Olympus FluoView™, Japan). An inverted microscope was also used which was equipped with an oil immersion objective lens (40×). The standard filter settings for fluorescence excitation (488 nm) and emission (520 nm) were used.

- retention in CaCO3 nanoparticles: not retained
Structure (SMILES): O=C1OC2(c3ccc(O)cc3Oc3cc(O)ccc32)c2ccc(N=C=S)cc21 [FITC dye]
